Here are results for 13 molecules from ChEMBL document CHEMBL1201862, “PubChem BioAssay data set” (2004).

The structures appear in SMILES notation.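 Growth conditions: 96-well plates. Treatment: test compound, 48 hours, 5 concentrations. Analysis: linear interpolation between bracketing concentrations; unreached endpoints set to highest concentration. Here, GI50 denotes the concentration required for 50% inhibition of growth.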 The source made the active and inactive calls. No stated cut-off is given here; in the data, active = GI50 up to about 1.1 µM and inactive = higher.

Test systems include U-251; PC-3; SNB-19; HT-29; MOLT-4; HCC 2998; Hs-578T; SW-620; SK-MEL-2; SK-MEL-5; OVCAR-8; IGROV-1; NCI/ADR-RES; M14; SN12C; BT-549; MDA-N; RXF 393.
Holding throughout (assay): NCI anticancer screen, dose series, 48 h

With `COc1ccc2c(c1)C(=O)CCc1cc(OC)c(OC)c(OC)c1-2`, the GI50 with U-251 was 0.0285 µM (active); in the experiment with PC-3 it was 0.0474 µM (active); with SNB-19, 0.051 µM (active); in the experiment with HT-29, 0.0374 µM (active); in the experiment with MOLT-4, 0.0564 µM (active); in the experiment on HCC 2998 it was 0.0412 µM (active). In addition, the GI50 in the experiment on Hs-578T was 0.0243 µM (active); in the experiment with SW-620, 0.0716 µM (active); with SK-MEL-2, 0.0818 µM (active); in the experiment on SK-MEL-5 it was 0.0521 µM (active); in the experiment on OVCAR-8, 0.0513 µM (active); with IGROV-1, 0.0553 µM (active). Also, the GI50 with NCI/ADR-RES was 0.0214 µM (active); in the experiment on M14 it was 0.0347 µM (active); in the experiment with SN12C it was 0.0649 µM (active).

Consider `CNC(=S)N/N=C(\C)c1cc(OC)c(OC)cc1O`, for which the GI50 with U-251, in the experiment with PC-3, in the experiment with SNB-19, in the experiment with BT-549, with HT-29 and in the experiment on MOLT-4 was > 100 µM (inactive) throughout. Further, the GI50 in the experiment with HCC 2998, in the experiment on SW-620, with SK-MEL-2, in the experiment with SK-MEL-5, in the experiment on MDA-N and in the experiment on OVCAR-8 was > 100 µM (inactive) throughout. For the same molecule, the GI50 in the experiment on IGROV-1, in the experiment on NCI/ADR-RES, in the experiment on M14, with SN12C and in the experiment on RXF 393 was > 100 µM (inactive) each time.

On to `O=C(CO)CC(=O)C(=O)Nc1cccc(C(F)(F)F)c1`, for which the GI50 in the experiment on SNB-19, in the experiment with HT-29, with MOLT-4, in the experiment with HCC 2998, in the experiment on SW-620 and in the experiment with SK-MEL-2 was > 100 µM (inactive) in each case. The GI50 with OVCAR-8, in the experiment with IGROV-1, in the experiment with M14 and in the experiment with SN12C was > 100 µM (inactive) each time.

Take `COc1ccc(/C=C2\NC(=S)N(CN3CCCCC3)C2=O)cc1`: the GI50 with U-251 is 61.7 µM (inactive); with PC-3, 78.7 µM (inactive); in the experiment with SNB-19, 37 µM (inactive); in the experiment on HT-29 it was 18.3 µM (inactive); with MOLT-4, 28.6 µM (inactive); in the experiment on Hs-578T it was 17.8 µM (inactive). The GI50 with SW-620 was 29.3 µM (inactive); in the experiment on SK-MEL-2, > 100 µM (inactive); in the experiment on SK-MEL-5 it was 36.1 µM (inactive); in the experiment with MDA-N it was 70.1 µM (inactive); with OVCAR-8, 15.4 µM (inactive); in the experiment with IGROV-1, 44.2 µM (inactive). Besides, the GI50 in the experiment on NCI/ADR-RES is 26.9 µM (inactive); in the experiment with M14, 50.7 µM (inactive); with SN12C, > 100 µM (inactive).

As to `CCOC(=O)CCSS(=O)(=O)c1ccccc1`, the GI50 with U-251 was > 100 µM (inactive); with PC-3, > 100 µM (inactive); in the experiment with SNB-19 it was > 100 µM (inactive); in the experiment with BT-549 it was > 100 µM (inactive); with HCC 2998, > 100 µM (inactive); in the experiment on SW-620 it was 22.2 µM (inactive). Also, the GI50 in the experiment on SK-MEL-2 is > 100 µM (inactive); with SK-MEL-5, 62.2 µM (inactive); in the experiment on MDA-N, > 100 µM (inactive); in the experiment with OVCAR-8 it was > 100 µM (inactive); in the experiment with NCI/ADR-RES, > 100 µM (inactive); in the experiment with M14, 64.4 µM (inactive). Besides, the GI50 with SN12C and in the experiment on RXF 393 was > 100 µM (inactive) each time.

Turning to `Cc1ccc(Nc2n[nH]c(=S)s2)cc1`, the GI50 in the experiment on U-251, with PC-3, with SNB-19, with HT-29, in the experiment on MOLT-4 and in the experiment with HCC 2998 was > 100 µM (inactive) in each case. The GI50 with Hs-578T was > 100 µM (inactive); in the experiment on SW-620 it was > 100 µM (inactive); in the experiment with SK-MEL-5 it was 99.1 µM (inactive); with MDA-N it was 59.4 µM (inactive); in the experiment with OVCAR-8, > 100 µM (inactive); in the experiment on NCI/ADR-RES, > 100 µM (inactive). Further, the GI50 with M14, in the experiment on SN12C and in the experiment on RXF 393 was > 100 µM (inactive) in each case.

For `COc1cc(OC)nc(NC(=O)NS(=O)(=O)c2cccc3ncn(C)c(=O)c23)n1`, the GI50 with U-251 is > 100 µM (inactive); in the experiment on SNB-19 it was > 100 µM (inactive); with HT-29, > 100 µM (inactive); in the experiment on MOLT-4, > 100 µM (inactive); in the experiment on Hs-578T, 67.1 µM (inactive); with SW-620 it was > 100 µM (inactive). For the same molecule, the GI50 with SK-MEL-2, in the experiment on SK-MEL-5, in the experiment on MDA-N, with OVCAR-8, in the experiment on IGROV-1 and with NCI/ADR-RES was > 100 µM (inactive) in each case. Further, the GI50 in the experiment on M14, in the experiment with SN12C and with RXF 393 was > 100 µM (inactive) in each case.

For `C=C1CC2(CCCC3(CC(=C)C(=O)O3)C2(C)C)OC1=O` (configuration not stated), the GI50 with U-251 is 1.42 µM (inactive); in the experiment with PC-3, 8.09 µM (inactive); in the experiment on SNB-19 it was 17.3 µM (inactive); in the experiment on BT-549 it was 3.75 µM (inactive); in the experiment with HT-29, 3.82 µM (inactive); with MOLT-4, 0.302 µM (active). Also, the GI50 with Hs-578T was 20.8 µM (inactive); in the experiment with SW-620, 1.39 µM (inactive); in the experiment with SK-MEL-2 it was 7.24 µM (inactive); in the experiment with SK-MEL-5 it was 14.8 µM (inactive); with OVCAR-8, 1.38 µM (inactive); in the experiment on IGROV-1, 8.83 µM (inactive). Moreover, the GI50 was 13.2 µM (inactive) with NCI/ADR-RES, 2.56 µM (inactive) in the experiment on M14, 3.03 µM (inactive) in the experiment with SN12C and 3.86 µM (inactive) with RXF 393.

`COc1cc(/C=C2/SC(c3ccccc3)N(c3ccccc3)C2=O)cc(OC)c1OC` (configuration not stated): the GI50 is 59.6 µM (inactive) with U-251; > 100 µM (inactive) with SNB-19; 29 µM (inactive) in the experiment on BT-549; 8.24 µM (inactive) with MOLT-4; > 100 µM (inactive) in the experiment with HCC 2998; > 100 µM (inactive) in the experiment with Hs-578T. In addition, the GI50 in the experiment on SW-620 was > 100 µM (inactive); in the experiment with SK-MEL-2, > 100 µM (inactive); in the experiment on SK-MEL-5, 12.1 µM (inactive); in the experiment on OVCAR-8 it was 76.4 µM (inactive); in the experiment with NCI/ADR-RES, 48.2 µM (inactive); in the experiment with M14, 49.9 µM (inactive). The GI50 was > 100 µM (inactive) with SN12C and 23.7 µM (inactive) in the experiment with RXF 393.

As to `Nc1nc2c(ncn2Cc2ccc(CO)cc2)c(=O)[nH]1`, the GI50 in the experiment with U-251, in the experiment with PC-3, in the experiment on SNB-19, in the experiment on BT-549, in the experiment on HT-29 and in the experiment on MOLT-4 was > 100 µM (inactive) throughout. For the same molecule, the GI50 with Hs-578T, in the experiment on SW-620, in the experiment with SK-MEL-2, in the experiment with SK-MEL-5, in the experiment on OVCAR-8 and in the experiment on IGROV-1 was > 100 µM (inactive) throughout. In addition, the GI50 in the experiment with NCI/ADR-RES, in the experiment with M14, in the experiment on SN12C and with RXF 393 was > 100 µM (inactive) throughout.

On to `COc1ccc(-n2c(N)c(C#N)[nH]c2=O)cc1`, for which the GI50 in the experiment with U-251, in the experiment with PC-3, with SNB-19, in the experiment with HT-29, with MOLT-4 and in the experiment with HCC 2998 was > 10 µM (inactive) in each case. The GI50 in the experiment on Hs-578T, in the experiment with SW-620, in the experiment with SK-MEL-2, in the experiment on SK-MEL-5, in the experiment on MDA-N and in the experiment on OVCAR-8 was > 10 µM (inactive) each time. The GI50 with IGROV-1, in the experiment on NCI/ADR-RES, in the experiment with M14, in the experiment on SN12C and in the experiment on RXF 393 was > 10 µM (inactive) in each case.

In the case of `CCOC(=O)C1=C(C)N(Cc2ccc(Cl)cc2Cl)C2(O)C=CC(=O)C3C(=O)N(c4ccccc4)C(=O)C132` (configuration not stated), the GI50 in the experiment on U-251 was 1.67 µM (inactive); in the experiment with PC-3, 1.5 µM (inactive); with SNB-19, 1.88 µM (inactive); in the experiment on BT-549, 1.3 µM (inactive); in the experiment on HT-29 it was 1.69 µM (inactive); in the experiment with MOLT-4, 1.41 µM (inactive). The GI50 with HCC 2998 is 1.71 µM (inactive); in the experiment with Hs-578T it was 3.37 µM (inactive); with SW-620, 1.32 µM (inactive); in the experiment with SK-MEL-2, 1.77 µM (inactive); in the experiment with SK-MEL-5, 2.09 µM (inactive); in the experiment with OVCAR-8, 2.02 µM (inactive). Moreover, the GI50 with IGROV-1 is 1.78 µM (inactive); in the experiment with NCI/ADR-RES, 2.29 µM (inactive); in the experiment with M14, 3.27 µM (inactive); with SN12C, 1.91 µM (inactive); in the experiment with RXF 393, 1.32 µM (inactive).

In the case of `CCCSc1ccc2[nH]c(N3C(=O)/C(=C/c4ccco4)N=C3c3ccccc3)cc2c1`, the GI50 in the experiment with PC-3 is 21.3 µM (inactive); in the experiment on SNB-19, > 50 µM (inactive); in the experiment with BT-549 it was 32.7 µM (inactive); in the experiment on HT-29, 21.3 µM (inactive); with MOLT-4 it was 17.1 µM (inactive); in the experiment with HCC 2998 it was 18.3 µM (inactive). In addition, the GI50 with SW-620 was 20.8 µM (inactive); in the experiment on SK-MEL-2, 10.3 µM (inactive); with SK-MEL-5, 9.89 µM (inactive); in the experiment on MDA-N, 6 µM (inactive); with OVCAR-8, > 50 µM (inactive); in the experiment with IGROV-1, 40.1 µM (inactive). For the same molecule, the GI50 was 19.6 µM (inactive) in the experiment on NCI/ADR-RES, 21.6 µM (inactive) in the experiment on M14, 35 µM (inactive) in the experiment with SN12C and 22.9 µM (inactive) with RXF 393.
